In patent US20240409585A1, “MACROCYCLIC IMMUNOMODULATORS” (priority 2021, published 2024):
Bridge positions count the residues as written; N and C are the ends. Square brackets hold non-standard residues; d marks the D form. Peptide text beside a SMILES is read from it. * marks the point of attachment. ξ: configuration not given here. Tyr(3-NO2) = N[C@@H](Cc1ccc(O)c([N+](=O)[O-])c1)C(=O)O; Phe(4-COOH) = N[C@@H](Cc1ccc(C(=O)O)cc1)C(=O)O; Bip = N[C@@H](Cc1ccc(-c2ccccc2)cc1)C(=O)O; NMeW = CN[C@@H](Cc1c[nH]c2ccccc12)C(=O)O; Phe(3-CN) = N#Cc1cccc(C[C@H](N)C(=O)O)c1; Phe(3-Me) = Cc1cccc(C[C@H](N)C(=O)O)c1; Val(3-OH) = CC(C)(O)[C@H](N)C(=O)O; aIle = CC[C@@H](C)[C@H](N)C(=O)O; 4Pal = N[C@@H](Cc1ccncc1)C(=O)O; Cit = NC(=O)NCCC[C@H](N)C(=O)O; Ile(3ξ) = CCC(C)[C@H](N)C(=O)O; Thr(3ξ) = CC(O)[C@H](N)C(=O)O; hSer = N[C@@H](CCO)C(=O)O; Carboxymethyl = O=C(O)C*; NMeA = CN[C@@H](C)C(=O)O; Orn = NCCC[C@H](N)C(=O)O; Dab = NCC[C@H](N)C(=O)O; Dap = NC[C@H](N)C(=O)O

target: T1, PE-labeled human PD-L1-Ig binding to Jurkat cell line over-expressing human PD-1 (Jurkat-PD-1) (Homo sapiens, UniProt Q15116); test: Jurkat-PD-1 Cell Binding High-Content Screening Assay (CBA): Method 1; settings: Jurkat-hPD-1 cells, PE-labeled PD-L1-Ig 20 nM final; read-out: Jurkat HPDL1 PD1 IC50 (uM) (Method 1)
T1 construct: expressed in transfected cells; host or cells: Jurkat
T1 sequence (Q15116 25-288): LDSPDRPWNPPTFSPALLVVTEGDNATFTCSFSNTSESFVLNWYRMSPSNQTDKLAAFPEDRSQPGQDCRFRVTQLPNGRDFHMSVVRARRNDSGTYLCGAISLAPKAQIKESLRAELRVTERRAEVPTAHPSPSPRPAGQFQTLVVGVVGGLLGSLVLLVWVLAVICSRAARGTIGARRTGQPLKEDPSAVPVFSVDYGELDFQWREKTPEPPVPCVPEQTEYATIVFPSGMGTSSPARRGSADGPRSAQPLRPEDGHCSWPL

| SMILES | IC50 [µM] |
| --- | --- |
| CC[C@H](C)[C@@H]1NC(=O)[C@H](Cc2ccc(-c3ccccc3)cc2)NC(=O)[C@H](C(C)C)NC(=O)[C@H](Cc2c[nH]c3ccccc23)NC(=O)[C@H](CC(=O)O)NC(=O)[C@H](Cc2ccc(O)cc2)NC(=O)[C@H](Cc2ccncc2)NC(=O)CSC[C@@H](C(N)=O)NC(=O)[C@H]([C@@H](C)O)NC(=O)[C@H](C(C)C)NC(=O)[C@H](CC(C)C)NC(=O)[C@H](CCN)NC(=O)[C@@H](CC(C)C)NC(=O)[C@H](C)N(C)C1=O [Compound 1632] ({CH2CO}-[4Pal]YDWV[Bip]I[NMeA][dL][Dab]LVTC-NH2; thioether N-14) | 0.13 |
| CC(C)C[C@@H]1NC(=O)[C@H](CCN)NC(=O)[C@@H](CC(C)C)NC(=O)[C@H](C)N(C)C(=O)[C@H](CCCNC(N)=O)NC(=O)[C@H](Cc2ccc(-c3ccccc3)cc2)NC(=O)[C@H](C(C)C)NC(=O)[C@H](Cc2c[nH]c3ccccc23)NC(=O)[C@H](CC(=O)O)NC(=O)[C@H](Cc2ccc(C(=O)O)cc2)NC(=O)[C@H](CN)NC(=O)CSC[C@@H](C(=O)N[C@@H](C)C(N)=O)NC(=O)[C@H]([C@@H](C)O)NC(=O)[C@H](C(C)C)NC1=O [Compound 1404] ({CH2CO}-[Dap][Phe(4-COOH)]DWV[Bip][Cit][NMeA][dL][Dab]LVTCA-NH2; thioether N-14) | 0.12 |
| CC(C)C[C@@H]1NC(=O)[C@H](CCN)NC(=O)[C@@H](CC(C)C)NC(=O)[C@H](C)N(C)C(=O)[C@H](CCCNC(=N)N)NC(=O)[C@H](Cc2ccc(-c3ccccc3)cc2)NC(=O)[C@H](C(C)C)NC(=O)[C@H](Cc2c[nH]c3ccccc23)NC(=O)[C@H](CC(=O)O)NC(=O)[C@H](Cc2cccc(C#N)c2)NC(=O)[C@H](CN)NC(=O)CSC[C@@H](C(=O)N[C@@H](C)C(N)=O)NC(=O)[C@H]([C@@H](C)O)NC(=O)[C@H](C(C)C)NC1=O [Compound 1455] ({CH2CO}-[Dap][Phe(3-CN)]DWV[Bip]R[NMeA][dL][Dab]LVTCA-NH2; thioether N-14) | 0.08 |
| CCC(C)[C@@H]1NC(=O)[C@H](Cc2ccc(-c3ccccc3)cc2)NC(=O)[C@H](CC(C)C)NC(=O)[C@H](Cc2c[nH]c3ccccc23)NC(=O)[C@H](CC(=O)O)NC(=O)[C@H](Cc2ccc(OCC(=O)O)cc2)NC(=O)[C@H](C(C)O)NC(=O)CSC[C@@H](C(=O)N[C@@H](CC(N)=O)C(=O)O)NC(=O)[C@H](CN)NC(=O)[C@H](C(C)C)NC(=O)[C@H](CC(C)C)NC(=O)[C@H](CCN)NC(=O)[C@@H](CC(C)C)NC(=O)[C@H](C)N(C)C1=O (stereo partly drawn) [Compound 2228] ({CH2CO}-[Thr(3ξ)]Y(Carboxymethyl)DWL[Bip][Ile(3ξ)][NMeA][dL][Dab]LV[Dap]CN-OH; thioether N-14) | 0.12 |
| CC[C@H](C)[C@@H]1NC(=O)[C@H](Cc2ccc(-c3ccccc3)cc2)NC(=O)[C@H](C(C)C)NC(=O)[C@H](Cc2cccc(C)c2)NC(=O)[C@H](CC(=O)O)NC(=O)[C@H](Cc2ccc(O)cc2)NC(=O)[C@H](CC(N)=O)NC(=O)CSC[C@@H](C(=O)N[C@H](C)C(N)=O)NC(=O)[C@H]([C@@H](C)O)NC(=O)[C@H](C(C)(C)O)NC(=O)[C@H](CC(C)C)NC(=O)[C@H](CCN)NC(=O)[C@@H](CC(C)C)NC(=O)[C@H](C)N(C)C1=O [Compound 1685] ({CH2CO}-NYD[Phe(3-Me)]V[Bip]I[NMeA][dL][Dab]L[Val(3-OH)]TC[dA]-NH2; thioether N-14) | 0.1 |
| CC(C)C[C@@H]1NC(=O)[C@H](CCN)NC(=O)[C@@H](CC(C)C)NC(=O)[C@H](C)N(C)C(=O)[C@H]([C@@H](C)O)NC(=O)[C@H](Cc2ccc(-c3ccccc3)cc2)NC(=O)[C@H](C(C)C)NC(=O)[C@H](Cc2c[nH]c3ccccc23)NC(=O)[C@H](CC(=O)O)NC(=O)[C@H](Cc2ccc(O)cc2)NC(=O)[C@H](CC(N)=O)NC(=O)CSC[C@@H](C(=O)N[C@@H](C)C(N)=O)NC(=O)[C@H]([C@@H](C)O)NC(=O)[C@H](C(C)C)NC1=O [Compound 1300] ({CH2CO}-NYDWV[Bip]T[NMeA][dL][Dab]LVTCA-NH2; thioether N-14) | 0.02 |
| CC(C)C[C@@H]1NC(=O)[C@H](Cc2c[nH]c3ccccc23)NC(=O)[C@H](CC(=O)O)NC(=O)[C@H](CCO)NC(=O)[C@H](Cc2ccccc2)NC(=O)CSC[C@@H](C(=O)N[C@@H](C)C(=O)N[C@@H](CCC(=O)O)C(N)=O)NC(=O)[C@H](CO)NC(=O)[C@H](C(C)C)NC(=O)[C@H](CC(C)C)NC(=O)[C@H](CC(N)=O)NC(=O)[C@@H](CC(C)C)NC(=O)[C@H](C)N(C)C(=O)[C@H](C(C)C)NC(=O)[C@H](Cc2ccc(-c3ccccc3)cc2)NC1=O [Compound 2009] ({CH2CO}-F[hSer]DWL[Bip]V[NMeA][dL]NLVSCAE-NH2; thioether N-14) | 0.02 |
| CC(C)C[C@@H]1NC(=O)[C@H](CCN)NC(=O)[C@@H](CC(C)C)NC(=O)[C@H](Cc2c[nH]c3ccccc23)N(C)C(=O)[C@H](C(C)C)NC(=O)[C@H](Cc2ccc(-c3ccccc3)cc2)NC(=O)[C@H](C(C)C)NC(=O)[C@H](Cc2c[nH]c3ccccc23)NC(=O)[C@H](CC(=O)O)NC(=O)[C@H](Cc2ccc(O)cc2)NC(=O)[C@H](CC(N)=O)NC(=O)CSC[C@@H](C(=O)N[C@@H](C)C(N)=O)NC(=O)[C@H]([C@@H](C)O)NC(=O)[C@H](C(C)C)NC1=O [Compound 1368] ({CH2CO}-NYDWV[Bip]V[NMeW][dL][Dab]LVTCA-NH2; thioether N-14) | 0.13 |
| CC(C)C[C@@H]1NC(=O)[C@H](Cc2c[nH]c3ccccc23)NC(=O)[C@H](CC(=O)O)NC(=O)[C@H](Cc2ccc(O)cc2)NC(=O)[C@H](Cc2ccccc2)NC(=O)CSC[C@@H](C(=O)N[C@@H](C)C(N)=O)NC(=O)[C@H](CO)NC(=O)[C@H](CCCN)NC(=O)[C@H](CC(C)C)NC(=O)[C@H](CC(N)=O)NC(=O)[C@@H](C)NC(=O)[C@H](C)N(C)C(=O)[C@H](C(C)C)NC(=O)[C@H](Cc2ccc(-c3ccccc3)cc2)NC1=O [Compound 1530] ({CH2CO}-FYDWL[Bip]V[NMeA][dA]NL[Orn]SCA-NH2; thioether N-14) | 0.03 |
| CC[C@@H](C)[C@@H]1NC(=O)[C@H](Cc2ccc(-c3ccccc3)cc2)NC(=O)[C@H](CC(C)C)NC(=O)[C@H](Cc2cccc(C)c2)NC(=O)[C@H](CC(=O)O)NC(=O)[C@H](Cc2ccc(C(=O)O)cc2)NC(=O)[C@H](Cc2ccc(OCC(=O)O)cc2)NC(=O)CSC[C@@H](C(N)=O)NC(=O)[C@H](CO)NC(=O)[C@H](C(C)C)NC(=O)[C@H](CC(C)C)NC(=O)[C@H](CC(N)=O)NC(=O)[C@@H](CC(C)C)NC(=O)[C@H](C)N(C)C1=O [Compound 1639] ({CH2CO}-Y(Carboxymethyl)[Phe(4-COOH)]D[Phe(3-Me)]L[Bip][aIle][NMeA][dL]NLVSC-NH2; thioether N-14) | 0.06 |
| CC(C)C[C@@H]1NC(=O)[C@H](CCCNC(=N)N)NC(=O)[C@@H](CC(C)C)NC(=O)[C@H](C)N(C)C(=O)[C@H](CCCNC(=N)N)NC(=O)[C@H](Cc2ccc(-c3ccccc3)cc2)NC(=O)[C@H](C(C)C)NC(=O)[C@H](Cc2c[nH]c3ccccc23)NC(=O)[C@H](CC(=O)O)NC(=O)[C@H](Cc2ccc(O)c([N+](=O)[O-])c2)NC(=O)[C@H](Cc2ccccc2)NC(=O)CSC[C@@H](C(=O)N[C@@H](C)C(N)=O)NC(=O)[C@H]([C@@H](C)O)NC(=O)[C@H](C(C)C)NC1=O [Compound 1095] ({CH2CO}-F[Tyr(3-NO2)]DWV[Bip]R[NMeA][dL]RLVTCA-NH2; thioether N-14) | 0.15 |
